The values below come from PubChem BioAssay (NCI).

Structures are written as SMILES. “And” between values parts separate entries of the source, which are not always exact repeats. Equal entries are not always repeated.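 Each compound was tested at five concentrations against cells in 96-well plates for 48 hours. Here, GI50 denotes the concentration required for 50% inhibition of growth. TGI: total growth inhibition.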

Test systems include HL-60(TB) leukemia; SK-MEL-28 melanoma; MALME-3M melanoma; NCI/ADR-RES ovarian; TK-10 renal; NCI-H23 lung; OVCAR-3 ovarian; SR leukemia; HCC-2998 colon; NCI-H522 lung.
Experiment in all cases: inhibition of tumour cell growth, NCI panel, 48 h

For `CN(CCNCc1ccccn1)CCNCc1ccccn1`, the GI50 was 3.27 µM in the test on HL-60(TB) leukemia; 2.64 µM in the test on SK-MEL-28 melanoma; 1.46 µM in the test on MALME-3M melanoma; 3.57 µM in the test with NCI/ADR-RES ovarian; 2.19 µM in the test with TK-10 renal; 3.55 µM with NCI-H23 lung. In addition, the GI50 is 2.09 µM in the test on OVCAR-3 ovarian, 3.71 µM in the test with SR leukemia and 2.17 µM in the test with HCC-2998 colon. Also, the TGI in the test with HL-60(TB) leukemia is 23.3 µM; in the test with SK-MEL-28 melanoma, 8.17 µM; in the test with MALME-3M melanoma, 3.94 µM; in the test on NCI/ADR-RES ovarian, greater than 100 µM; in the test with TK-10 renal, 6.94 µM; with NCI-H23 lung, greater than 100 µM. Also, the TGI with OVCAR-3 ovarian came to 4.27 µM; in the test with SR leukemia, 43 µM; with HCC-2998 colon, 4.64 µM.

For the compound `CCCCCO/N=C\c1c2c(O)c3c(O)c(C)c4c(c3c1O)C(=O)C(C)(O/C=C\C(OC)C(C)C(OC(C)=O)C(C)C(O)C(C)C(O)C(C)/C=C\C=C(\C)C(=O)N2)O4` (configuration not stated), the GI50 was 2.92 µM in the test with HL-60(TB) leukemia; 1.66 µM in the test with SK-MEL-28 melanoma; 1.79 µM in the test with NCI/ADR-RES ovarian; 1.74 µM in the test with NCI-H23 lung; 1.5 µM in the test with OVCAR-3 ovarian; 2.88 µM in the test on SR leukemia. Further, the GI50 in the test with HCC-2998 colon was 1.65 µM. Besides, the TGI in the test on HL-60(TB) leukemia amounted to 6.34 µM; with SK-MEL-28 melanoma it was 3.02 µM; with NCI/ADR-RES ovarian, 3.68 µM; in the test on NCI-H23 lung, 3.44 µM; in the test with OVCAR-3 ovarian it was 2.82 µM; in the test with SR leukemia it was 7.34 µM. The compound also registered a TGI in the test on HCC-2998 colon of 3.08 µM.

In the case of `COC1C(O)C(CO)OC(OC2C(O)COC(OC3C(C)OC(OC4C(O[C@H]5CC[C@@]6(C)C(CC=C7[C@H]6CCC68C(=O)O[C@@](C)(CCCC(C)C)[C@H]6[C@@H](OC(C)=O)C[C@@]78C)C5(C)C)OCC(OS(=O)(=O)O)C4O)C(OC4OCC(O)C(O)C4O)C3O)C2O)C1O` (some centres not stated), the GI50 in the test with SK-MEL-28 melanoma was 0.495 µM; in the test with MALME-3M melanoma it was 0.242 µM; with NCI/ADR-RES ovarian it was 0.207 µM; with TK-10 renal, 0.333 µM; in the test on NCI-H23 lung, 0.113 µM; in the test on OVCAR-3 ovarian, 0.181 µM. Further, the GI50 in the test with SR leukemia was 0.0628 µM; in the test on NCI-H522 lung, 0.194 µM; in the test with HCC-2998 colon it was 0.13 µM. For the same compound, the TGI in the test with SK-MEL-28 melanoma turned out to be 2.14 µM; in the test with MALME-3M melanoma it was 0.671 µM; with NCI/ADR-RES ovarian, 0.63 µM; with TK-10 renal it was 0.855 µM; with NCI-H23 lung, 0.287 µM; in the test on SR leukemia, 0.238 µM. The values for the TGI in the test with NCI-H522 lung and in the test with HCC-2998 colon were 0.497 µM and 0.391 µM, respectively.

Consider `O=C(O)CCC(=O)c1ccc2sc3ccccc3c2c1`, for which the TGI in the test on HL-60(TB) leukemia, in the test on SK-MEL-28 melanoma, in the test with MALME-3M melanoma, with NCI/ADR-RES ovarian, in the test with TK-10 renal and in the test with NCI-H23 lung was greater than 100 µM each time. The TGI with OVCAR-3 ovarian, with SR leukemia and with NCI-H522 lung was greater than 100 µM throughout.

In the case of `O=C1c2sccc2-c2cccc3cccc1c23` (tested in a mixture with another compound), the TGI is 46.1 µM in the test on HL-60(TB) leukemia; greater than 100 µM in the test on SK-MEL-28 melanoma; 9.06 µM with MALME-3M melanoma; 47.2 µM in the test on NCI/ADR-RES ovarian; 22.6 µM in the test on TK-10 renal; 67.8 µM in the test on OVCAR-3 ovarian. Also, the values for the TGI with SR leukemia and in the test with NCI-H522 lung were 2.02 µM and 57.1 µM, respectively.

On to `COc1ccc(NC(=O)C2CCC(CNS(=O)(=O)c3ccccc3)CC2)cc1OC` (configuration not stated), for which the GI50 in the test on HL-60(TB) leukemia was greater than 100 µM; with MALME-3M melanoma, 40.3 µM; in the test on NCI/ADR-RES ovarian it was greater than 100 µM; with TK-10 renal, greater than 100 µM; with NCI-H23 lung it was greater than 100 µM; in the test on OVCAR-3 ovarian it was greater than 100 µM. Besides, the GI50 in the test on SR leukemia is 0.542 µM; with NCI-H522 lung, 60.9 µM; in the test on HCC-2998 colon it was greater than 100 µM. Also, the TGI with HL-60(TB) leukemia, in the test with MALME-3M melanoma, with NCI/ADR-RES ovarian, in the test with TK-10 renal, in the test on NCI-H23 lung and in the test on OVCAR-3 ovarian was greater than 100 µM throughout. Further, the TGI in the test on SR leukemia, with NCI-H522 lung and in the test with HCC-2998 colon was greater than 100 µM throughout.

On to `N#CCCN1C/C(=C/c2ccc(Cl)cc2)C(=O)/C(=C/c2ccc(Cl)cc2)C1`, for which the GI50 in the test with HL-60(TB) leukemia was 2.12 µM; with SK-MEL-28 melanoma it was 1.91 µM; with MALME-3M melanoma it was 2.24 µM; in the test on NCI/ADR-RES ovarian, 3.4 µM; in the test on TK-10 renal, 2.08 µM; in the test on NCI-H23 lung, 2.18 µM. In addition, the GI50 in the test on OVCAR-3 ovarian is 1.2 µM; with NCI-H522 lung it was 1.77 µM; in the test with HCC-2998 colon, 1.84 µM. Also, the TGI came to 7.38 µM in the test on HL-60(TB) leukemia; 3.9 µM in the test on SK-MEL-28 melanoma; 5.22 µM with MALME-3M melanoma; 52.2 µM with NCI/ADR-RES ovarian; 4.86 µM in the test with TK-10 renal; 5.61 µM in the test with NCI-H23 lung. Further, the TGI in the test on OVCAR-3 ovarian came to 2.5 µM; with NCI-H522 lung, 3.41 µM; in the test on HCC-2998 colon, 3.33 µM.

Turning to `COc1cc2c(cc1OCCCCN1CCN(C(=S)SCCC(C#N)(c3ccccc3)c3ccccc3)CC1)N=C[C@@H]1CCCN1C2=O`, the GI50 in the test with HL-60(TB) leukemia is 0.324 µM; with MALME-3M melanoma, 1.36 µM; in the test on NCI/ADR-RES ovarian, 3.05 µM; in the test with TK-10 renal, 1.26 µM; in the test on OVCAR-3 ovarian it was 1.2 µM; in the test with NCI-H522 lung, 0.196 µM. The TGI with HL-60(TB) leukemia is 1.57 µM; in the test on MALME-3M melanoma, 3.04 µM; in the test with NCI/ADR-RES ovarian, greater than 100 µM; with TK-10 renal, 3.04 µM; in the test on OVCAR-3 ovarian, 2.93 µM; in the test with NCI-H522 lung it was 0.642 µM.

On to `CC(C)(Br)C(=O)C(Br)Br`, for which the GI50 in the test with HL-60(TB) leukemia is 6.35 µM; in the test on SK-MEL-28 melanoma, 4.93 µM; with MALME-3M melanoma it was 4.92 µM; with TK-10 renal, 4.95 µM; with NCI-H23 lung, 5.84 µM; with OVCAR-3 ovarian, 5.76 µM. Moreover, the GI50 in the test with NCI-H522 lung is 1.37 µM. The TGI in the test with SK-MEL-28 melanoma is 22.1 µM and 9.12 µM; in the test on MALME-3M melanoma, 3.67 µM and 9.42 µM; with NCI/ADR-RES ovarian it was 12.6 µM; in the test on TK-10 renal, 23.5 µM and 9.15 µM; in the test with NCI-H23 lung it was 15.7 µM and 10.5 µM; with OVCAR-3 ovarian it was 18.6 µM and 10.6 µM. The TGI is 3.18 µM and 5.16 µM in the test on NCI-H522 lung; 30.8 µM with HCC-2998 colon.

Turning to `c1ccc(CCc2cccnc2)nc1`, the TGI in the test on SK-MEL-28 melanoma, in the test with MALME-3M melanoma, in the test on NCI/ADR-RES ovarian, in the test on TK-10 renal, in the test on NCI-H23 lung and in the test with OVCAR-3 ovarian was greater than 100 µM throughout. In addition, the TGI in the test on SR leukemia and in the test on NCI-H522 lung was greater than 100 µM throughout.
